Assay results: US9999649B2, “Peptide having ability to synthesize collagen and use thereof” (NOVACELL TECHNOLOGY INC., priority 2013, dated 2018)
No end group written: not given here. *: point of attachment. Palmitoyl = CCCCCCCCCCCCCCCC(=O)*; Oleyl = CCCCCCCC/C=C\CCCCCCCC*

Tests used:
Type in all cases: cell-based, human
[1] = tested on: collagen I expression induced by YIGSR peptide; assay: YIGSR peptide-induced collagen I expression under FAK and MEK inhibitors, western blot; details: Hs27 cells, 1 μM inhibitor with 1 μM YIGSR peptide, 24 hours
Procedure: To evaluate whether collagen I expression induced by YIGSR peptide according to one embodiment of the present invention is mediated by FAK and MAPK or not, FAK and MEK inhibitors were used.
Hs27 cells of Example 3 were cultured in a 24-well plate provided that the cells were cultured in a serum-free state for 24 hours. Then, the cells were treated with 1 μM of the FAK-specific inhibitor, PF573228 (Tocris Bioscience, United Kingdom) for 24 hours.

ERK = ERK phosphorylation by Pal-YIGSR peptide, immunoblotting in Hs27 skin fibroblasts; details: FIG. 8
Procedure: Hs27 skin fibroblasts, which are under culture, were treated with the peptide derivatives prepared in Examples 1 and 2, and Comparative Example 2, and an amount of expressed type I collagen in the cells were measured by an immunoblotting method. The Hs27 skin fibroblasts were cultured by using DMEM medium, (Lonza, USA), to which 10% FBS was added (Lonza, USA), under the condition of 95% of humidity, 5% CO2, and 37° C. Hs27 skin fibroblasts were treated with each concentration of the peptide (0, 2, 25, 50 and 100 μM) for 24 hours or 100 μM of the peptide for each period of time (0, 0.5, 6, 12 and 24 hours). Then, the treated cells were sonicated in the lysis buffer (150 mM NaCl, 1% Triton X-100, 10 mM Tris, 1 mM EDTA, pH 7.4). Thereafter, supernatant was isolated through centrifugation, and quantification was performed through Bradford assay. The same amount of a protein was mixed in a 5× sample buffer and the mixture was heated for 5 minutes at 95° C. The resultant was electrophoresed on 6-15% concentration gradient SDS-Polyacrylamide gel electrophoresis (SDS-PAGE) and then adsorbed to a nitrocellulose membrane. […]

type I collagen = assay: Type I collagen synthesis by Pal-YIGSR peptide, immunoblotting in Hs27 skin fibroblasts; details: for effect compared with the original YIGSR peptide: collagen I production, summary statement b41
Procedure: Hs27 skin fibroblasts, which are under culture, were treated with the peptide derivatives prepared in Examples 1 and 2, and Comparative Example 2, and an amount of expressed type I collagen in the cells were measured by an immunoblotting method. The Hs27 skin fibroblasts were cultured by using DMEM medium, (Lonza, USA), to which 10% FBS was added (Lonza, USA), under the condition of 95% of humidity, 5% CO2, and 37° C. Hs27 skin fibroblasts were treated with each concentration of the peptide (0, 2, 25, 50 and 100 μM) for 24 hours or 100 μM of the peptide for each period of time (0, 0.5, 6, 12 and 24 hours). Then, the treated cells were sonicated in the lysis buffer (150 mM NaCl, 1% Triton X-100, 10 mM Tris, 1 mM EDTA, pH 7.4). Thereafter, supernatant was isolated through centrifugation, and quantification was performed through Bradford assay. The same amount of a protein was mixed in a 5× sample buffer and the mixture was heated for 5 minutes at 95° C. The resultant was electrophoresed on 6-15% concentration gradient SDS-Polyacrylamide gel electrophoresis (SDS-PAGE) and then adsorbed to a nitrocellulose membrane. Anti-type I collagen primary antibody (Rockland, USA), anti-phospho-ERK primary antibody (Cell signaling, USA), and anti-actin primary antibody (Santa Cruz, USA) were diluted in TBST buffer (Tris buffered saline with 0.05% Tween 20, pH 7.6) including 5% skimmed milk and reacted for 16 hours. Then, the resultant was washed with TBST for 10 minutes 6 times. Then, the membrane was treated with anti-mouse rabbit peroxidase-conjugated secondary antibody (KPL, USA) for reaction for one hour at room temperature, and washed again with TBST 6 times for 10 minutes followed by development with the enhanced chemiluminescent (ECL) solution (Amersham, USA) for evaluation.

collagen = assay: Influence of palmitoyl group: collagen synthesis by RGD and Pal-RGD peptides; details: FIG. 10
Procedure: Then, the treated cells were sonicated in the lysis buffer (150 mM NaCl, 1% Triton X-100, 10 mM Tris, […], pH 7.4). Thereafter, supernatant was isolated through centrifugation, and quantification was performed through Bradford assay. The same amount of a protein was mixed in a 5× sample buffer, and the mixture was heated for 5 minutes at 95° C. The resultant was electrophoresed on 6-15% concentration gradient SDS-polyacrylamide gel electrophoresis (SDS-PAGE), and then adsorbed to a nitrocellulose membrane. An anti-type I collagen primary antibody (Rockland, USA) and anti-actin primary antibody (Santa Cruz, USA) were diluted in TBST buffer (Tris buffered saline with 0.05% Tween 20, pH 7.6) including 5% skimmed milk and reacted for 16 hours. Then, the resultant was washed with TBST for 10 minutes 6 times. Thereafter, the membrane was treated with an anti-mouse rabbit peroxidase-conjugated secondary antibody (KPL, USA) for reaction for one hour at room temperature, and washed again with TBST 6 times for 10 minutes followed by development with the enhanced chemiluminescent (ECL) solution (Amersham, USA) for evaluation. In addition, the western blot image was quantitatively compared with densitometric analysis by using image J program (Ver 1.38, //rsbweb.nih.gov/ij/index.html). […]

Hs27 skin fibroblasts = assay: Cell growth by crystal violet assay; details: 72 hours
Procedure: The Hs27 skin fibroblasts were seeded on a 24-well culture plate (40,000 cells per each), and cultured under 5% CO2, and 37° C. for 24 hours to allow cells to be attached to a bottom of the culture plate. Next day, a medium was changed to a medium including FBS. Then, cells were cultured again for 24 hours and treated with the peptide derivatives of Examples 1 and 2, and Comparative Examples 1 and 2 followed by further culture of 72 hours. Then, cell growth was measured through crystal violet assay.
Specifically, the medium in each well was removed, and […] of 0.1% crystal violet solution was added to each well followed by 5 minutes of staining. Then, the crystal violet solution was removed, and wells were washed with deionized water four times until the well became transparent. When the washed distilled water became transparent, distilled water was removed. Then, 1 ml of 95% ethanol was added with stirring for 20 minutes to dissolve crystal violet from stained cells. […] of the solution was dispensed to a 96-well plate, and absorbance was measured at 590 nm by using ELISA reader. Then, relative cell growth was calculated by using, as a control, a group which was not treated with a material to be tested.

COc1cccc(-c2cc(=O)c3ccccc3o2)c1N [PD98059]
effect of inhibitor on collagen I expression induced by YIGSR peptide [1]: remarkably inhibited

CS(=O)(=O)c1cccc(CNc2nc(Nc3ccc4c(c3)CCC(=O)N4)ncc2C(F)(F)F)c1 [PF573228]
effect of inhibitor on collagen I expression induced by YIGSR peptide [1]: remarkably repressed

Oleyl-YIGSR [YIGSR peptide having an N-terminal, to which an oleyl group is added instead of the palmitoyl group]
ERK phosphorylation induction (ERK): rarely affect ERK phosphorylation
degree of collagen synthesis compared with control and Pal-YIGSR (type I collagen; Hs27 skin fibroblasts, FIG. 7): no difference from the control
effect compared with the original YIGSR peptide (type I collagen): no improved activity

Pal-RGD [Pal-RGD peptide]
collagen synthesis degree versus control (collagen): not significantly different from that of the control

Palmitoyl-YIGSR [Pal-YIGSR, peptide derivative in which a palmitoyl group is attached to an N-terminal of the YIGSR peptide]
ERK phosphorylation induction (ERK): observed
cell growth relative to untreated control (Hs27 skin fibroblasts; 100 μM): 13%
cell growth relative to untreated control (Hs27 skin fibroblasts; 500 μM): 23%
concentration range in which cell growth was shown (Hs27 skin fibroblasts): 0.5 to 50 µM
amount of synthesized collagen depending on concentration (type I collagen; 0, 2, 25, 50 and 100 μM, 24 hours): increased as concentration increased
amount of synthesized collagen depending on exposure time (type I collagen; 100 μM, 0, 0.5, 6, 12 and 24 hours): increased as exposure time increased
effect compared with the original YIGSR peptide (type I collagen): more potent effect than the YIGSR peptide

RGD [RGD peptide]
collagen synthesis degree versus control (collagen): not significantly different from that of the control
